Species on record: Rattus norvegicus
Assay: Open TG-GATES - Regimen: Single
Format: toxicity, organism-based, Sprague-Dawley
Design: regimen Single, gender Male, age 6 weeks
Conditions: in vivo, ip, 0 mg/kg, route intraperitoneal injection, dose level Control; for APTT / Bas / Eos / Fbg / Hb / Ht / Lym / MCH / MCHC / MCV / Mono / Neu / PT / Plat / RBC / Ret / WBC: tissue Blood; for KIDNEY_L / KIDNEY_R / KIDNEY_TOTAL: tissue Kidney; for LIVER: tissue Liver; for A/G / ALP / ALT / AST / BUN / CRE / Ca / Cl / DBIL / GLC / IP / K / LDH / Na / PL / RALB / TBIL / TC / TG / TP / gamma-GTP: tissue Plasma

Question: Which results are given for `N[C@H]1C(O)O[C@H](CO)[C@@H](O)[C@@H]1O` (some centres not stated) [GLUCOSAMINE]?
Answer: TERMINAL_BW (3 h): 190.4 g; APTT (3 h): 17.1 s; Bas (3 h): 0.2%; Eos (3 h): 0.6%; Fbg (3 h): 273.4 mg/dL; Hb (3 h): 12.6 g/dL; Ht (3 h): 38.6%; Lym (3 h): 73.6%; MCH (3 h): 20.7 pg; MCHC (3 h): 32.7%; MCV (3 h): 63.4 fL; Mono (3 h): 3.8%; Neu (3 h): 20.2%; PT (3 h): 15.5 s; Plat (3 h): 111.6 x10_4/uL; RBC (3 h): 609.4 x10_4/ul; Ret (3 h): 9.4%; WBC (3 h): 98.5 x10_2/uL; KIDNEY_L (3 h): 0.9 g; KIDNEY_R (3 h): 0.9 g; KIDNEY_TOTAL (3 h): 1.7 g; LIVER (3 h): 8.4 g; A/G (3 h): 0.9; ALP (3 h): 1386.8 IU/L; ALT (3 h): 42.2 IU/L; AST (3 h): 77 IU/L; BUN (3 h): 9.6 mg/dL; CRE (3 h): 0.2 mg/dL; Ca (3 h): 10.5 mg/dL; Cl (3 h): 106.4 meq/L; DBIL (3 h): 0.01 mg/dL; GLC (3 h): 175.4 mg/dL; IP (3 h): 9.4 mg/dL; K (3 h): 4.4 meq/L; LDH (3 h): 61.2 IU/L; Na (3 h): 142.2 meq/L; PL (3 h): 141.6 mg/dL; RALB (3 h): 2.4 g/dL; TBIL (3 h): 0.052 mg/dL; TC (3 h): 79.2 mg/dL; TG (3 h): 47.8 mg/dL; TP (3 h): 5.2 g/dL; gamma-GTP (3 h): 0.8 IU/L; TERMINAL_BW (6 h): 188.5 g; APTT (6 h): 18.8 s; Bas (6 h): 0.2%; Eos (6 h): 0%; Fbg (6 h): 298.6 mg/dL; Hb (6 h): 12.9 g/dL; Ht (6 h): 39.6%; Lym (6 h): 62.6%; MCH (6 h): 21.3 pg; MCHC (6 h): 32.6%; MCV (6 h): 65.5 fL; Mono (6 h): 2%; Neu (6 h): 34%; PT (6 h): 15.8 s; Plat (6 h): 113.1 x10_4/uL; RBC (6 h): 604.2 x10_4/ul; Ret (6 h): 9.4%; WBC (6 h): 79.2 x10_2/uL; KIDNEY_L (6 h): 0.8 g; KIDNEY_R (6 h): 0.8 g; KIDNEY_TOTAL (6 h): 1.6 g; LIVER (6 h): 7.8 g; A/G (6 h): 0.9; ALP (6 h): 1323.4 IU/L; ALT (6 h): 36.2 IU/L; AST (6 h): 70.2 IU/L; BUN (6 h): 8.2 mg/dL; CRE (6 h): 0.2 mg/dL; Ca (6 h): 10.3 mg/dL; Cl (6 h): 106.8 meq/L; DBIL (6 h): 0.008 mg/dL; GLC (6 h): 178.6 mg/dL; IP (6 h): 9.8 mg/dL; K (6 h): 4 meq/L; LDH (6 h): 51.8 IU/L; Na (6 h): 142.4 meq/L; PL (6 h): 144 mg/dL; RALB (6 h): 2.5 g/dL; TBIL (6 h): 0.052 mg/dL; TC (6 h): 82.8 mg/dL; TG (6 h): 41.4 mg/dL; TP (6 h): 5.3 g/dL; gamma-GTP (6 h): 1 IU/L; TERMINAL_BW (9 h): 185.1 g; APTT (9 h): 17 s; Bas (9 h): 0.2%; Eos (9 h): 0.8%; Fbg (9 h): 298.8 mg/dL; Hb (9 h): 13 g/dL; Ht (9 h): 40.1%; Lym (9 h): 66.6%; MCH (9 h): 21.2 pg; MCHC (9 h): 32.5%; MCV (9 h): 65.3 fL; Mono (9 h): 2.4%; Neu (9 h): 29.6%; PT (9 h): 15.7 s; Plat (9 h): 109.5 x10_4/uL; RBC (9 h): 615 x10_4/ul; Ret (9 h): 9.4%; WBC (9 h): 85.2 x10_2/uL; KIDNEY_L (9 h): 0.8 g; KIDNEY_R (9 h): 0.8 g; KIDNEY_TOTAL (9 h): 1.6 g; LIVER (9 h): 7.2 g; A/G (9 h): 0.9; ALP (9 h): 1439.4 IU/L; ALT (9 h): 37.6 IU/L; AST (9 h): 78 IU/L; BUN (9 h): 7.6 mg/dL; CRE (9 h): 0.2 mg/dL; Ca (9 h): 10.4 mg/dL; Cl (9 h): 107.4 meq/L; DBIL (9 h): 0.014 mg/dL; GLC (9 h): 157.4 mg/dL; IP (9 h): 10.3 mg/dL; K (9 h): 3.6 meq/L; LDH (9 h): 51.6 IU/L; Na (9 h): 143.2 meq/L; PL (9 h): 131.4 mg/dL; RALB (9 h): 2.5 g/dL; TBIL (9 h): 0.078 mg/dL; TC (9 h): 79.4 mg/dL; TG (9 h): 18.4 mg/dL; TP (9 h): 5.3 g/dL; gamma-GTP (9 h): 0.6 IU/L; TERMINAL_BW (24 h): 201.5 g; APTT (24 h): 17.2 s; Bas (24 h): 0.2%; Eos (24 h): 1.4%; Fbg (24 h): 293.6 mg/dL; Hb (24 h): 12.9 g/dL; Ht (24 h): 38.9%; Lym (24 h): 77.2%; MCH (24 h): 20.8 pg; MCHC (24 h): 33.1%; MCV (24 h): 62.6 fL; Mono (24 h): 2.8%; Neu (24 h): 17.2%; PT (24 h): 16.2 s; Plat (24 h): 117.8 x10_4/uL; RBC (24 h): 622.4 x10_4/ul; Ret (24 h): 8.9%; WBC (24 h): 96.4 x10_2/uL; KIDNEY_L (24 h): 0.9 g; KIDNEY_R (24 h): 0.9 g; KIDNEY_TOTAL (24 h): 1.8 g; LIVER (24 h): 9 g; A/G (24 h): 0.9; ALP (24 h): 1430 IU/L; ALT (24 h): 39.8 IU/L; AST (24 h): 76.2 IU/L; BUN (24 h): 13.6 mg/dL; CRE (24 h): 0.2 mg/dL; Ca (24 h): 10.4 mg/dL; Cl (24 h): 105.8 meq/L; DBIL (24 h): 0.012 mg/dL; GLC (24 h): 185.2 mg/dL; IP (24 h): 8.3 mg/dL; K (24 h): 4.3 meq/L; LDH (24 h): 108.2 IU/L; Na (24 h): 142 meq/L; PL (24 h): 151.6 mg/dL; RALB (24 h): 2.5 g/dL; TBIL (24 h): 0.04 mg/dL; TC (24 h): 80.4 mg/dL; TG (24 h): 69.8 mg/dL; TP (24 h): 5.5 g/dL; gamma-GTP (24 h): 0.4 IU/L

From ChEMBL document CHEMBL3885861, “Open TG-GATES”
